# From patent US20190185865A1, “USE OF PROKARYOTIC TRANSCRIPTIONAL ACTIVATORS AS METABOLITE BIOSENSORS IN EUKARYOTIC CELLS” (Danmarks Tekniske Universitet, priority 2016, published 2019)
# Target: T1, BenM (Acinetobacter baylyi, UniProt O68014)
# T1 construct: expressed in transfected cells; host or cells: Saccharomyces cerevisiae CEN.PK113-5A, chromosomal integration; promoters TDH3p, TEF1p, RNR2p or REV1p
# Assay: CCM-induced GFP expression in yeast strains combining BenM expression cassettes and CYC1p reporter promoter variants (flow cytometry)
# Assay type: cell-based, Saccharomyces cerevisiae
# Settings: for FC (+/−CCM): 1.4 mM CCM
# Source text: Strains, chemicals and media. Saccharomyces cerevisiae CEN.PK102-5B (MATa ura3-52 his3Δ1 leu2-3/112 MAL2-8^c SUC2), CEN.PK113-5A (MATa, trp1 his3Δ1 leu2-3/112 MAL2-8^c SUC2) and CEN.PK113-7D (wild type, MATa MAL2-8^c SUC2) strains were obtained from Peter Kotter (Johann Wolfgang Goethe-University Frankfurt, Germany). In principal any other yeast strains may be used, such as one obtained from public repository EuroScarf. EasyClone plasmids used in this work are described in Jensen, N. B. et al. EasyClone: method for iterative chromosomal integration of multiple genes in Saccharomyces cerevisiae. FEMS Yeast Res. 14, 238-48 (2014). Escherichia coli strain DH5a was used as a host for cloning and plasmid propagation. The chemicals and Pfu TURBO DNA polymerase were commercially obtained (Sigma-Aldrich and Agilent Technologies Inc., respectively). All acids used were >97% in purity. S. cerevisiae cells were grown at 30° C. in synthetic complete medium as well as drop-out media and agar plates were prepared using pre-mixed drop-out powders (Sigma-Aldrich). Mineral medium was freshly prepared as described previously. For all media containing diacids, 1.4 mM of the individual diacids were dissolved in mineral medium and pH adjusted to 4.5 before sterile filtration. For CCM several dilutions were made to examine the performance of the CCM biosensor. For naringenin, mineral medium was supplemented with 0, 0.05, 0.10 or 0.20 mM naringenin, dissolved in ethanol, the final ethanol concentration for each medium was 2% (v/v), and the final pH of the medium was adjusted to 6.0. E. coli cells were grown at 37° C. in Luria-Bertani (LB) medium supplemented with 100 μg/mL ampicillin.
# Events were analyzed using FlowJo software (TreeStar Inc.).
# T1 sequence (O68014 whole entry): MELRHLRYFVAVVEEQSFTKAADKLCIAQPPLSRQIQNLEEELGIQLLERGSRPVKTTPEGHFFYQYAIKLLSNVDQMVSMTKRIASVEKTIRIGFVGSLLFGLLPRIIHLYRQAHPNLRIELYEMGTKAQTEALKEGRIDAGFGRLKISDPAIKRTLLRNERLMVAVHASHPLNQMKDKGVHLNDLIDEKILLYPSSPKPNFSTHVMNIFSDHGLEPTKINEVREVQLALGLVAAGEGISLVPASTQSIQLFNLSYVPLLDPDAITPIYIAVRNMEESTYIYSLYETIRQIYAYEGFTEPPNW
compound,measurement,setting,value
"O=C(O)/C=C\C=C/C(=O)O [CCM, cis, cis-muconic acid]",maximum induction of GFP output,"chromosomally integrated BenM, 1.4 mM (200 mg/L) CCM, 24 h",3.5 fold
same,increase in reporter output from all CYC1 promoters that harbored BenO,"full-length CYC1p with BenO (T1, T2, T1/T2), BenM from TEF1p, 200 mg/L CCM, pH 4.5, 24 h",1.3-2.2 fold
same,highest dynamic range (CCM-inducibility),minimal promoters 249 bp_CYC1p_BenO_T1 and 209 bp_CYC1p_BenO_T1,3.2-4.7 fold
same,change in reporter output from native CYC1p,"native CYC1p, 200 mg/L CCM, pH 4.5, 24 h",no change
same,"Mean fluorescense intensities of GFP (24 h), CCM (1.4 mM)","strain MeLS0020, TEF1p-BenM + 491bp_CYC1p_BenO_T2:GFP",813
same,FC (+/−CCM),"strain MeLS0020, TEF1p-BenM + 491bp_CYC1p_BenO_T2:GFP, 24 h",2.224
same,"Mean fluorescense intensities of GFP (24 h), CCM (1.4 mM)","strain MeLS0021, TEF1p-BenM + 491bp_CYC1p_BenO_T1/T2:GFP",2967
same,FC (+/−CCM),"strain MeLS0021, TEF1p-BenM + 491bp_CYC1p_BenO_T1/T2:GFP, 24 h",2.184
same,"Mean fluorescense intensities of GFP (24 h), CCM (1.4 mM)","strain MeLS0025, TEF1p-BenM + 209bp_CYC1p_BenO_T1:GFP",4139
same,FC (+/−CCM),"strain MeLS0025, TEF1p-BenM + 209bp_CYC1p_BenO_T1:GFP, 24 h",3.494
same,"Mean fluorescense intensities of GFP (24 h), CCM (1.4 mM)","strain MeLS0026, TEF1p-BenM + 209bp_CYC1p_BenO_T2:GFP",406
same,FC (+/−CCM),"strain MeLS0026, TEF1p-BenM + 209bp_CYC1p_BenO_T2:GFP, 24 h",1.068
same,"Mean fluorescense intensities of GFP (24 h), CCM (1.4 mM)","strain MeLS0027, TEF1p-BenM + 209bp_CYC1p_BenO_T1/T2:GFP",1879
same,FC (+/−CCM),"strain MeLS0027, TEF1p-BenM + 209bp_CYC1p_BenO_T1/T2:GFP, 24 h",3.394
same,"Mean fluorescense intensities of GFP (24 h), CCM (1.4 mM)","strain MeLS0044, REV1p-BenM + 491bp_CYC1p_BenO_T2:GFP",667
same,FC (+/−CCM),"strain MeLS0044, REV1p-BenM + 491bp_CYC1p_BenO_T2:GFP, 24 h",1.524
same,"Mean fluorescense intensities of GFP (24 h), CCM (1.4 mM)","strain MeLS0045, REV1p-BenM + 491bp_CYC1p_BenO_T1/T2:GFP",1698
same,FC (+/−CCM),"strain MeLS0045, REV1p-BenM + 491bp_CYC1p_BenO_T1/T2:GFP, 24 h",1.418
same,CCM-inducibility,"strain MeLS0049, 209 bp_CYC1p_BenO_T1, BenM from REV1p",3.8 fold
same,"Mean fluorescense intensities of GFP (24 h), CCM (1.4 mM)","strain MeLS0049, REV1p-BenM + 209bp_CYC1p_BenO_T1:GFP",880
same,FC (+/−CCM),"strain MeLS0049, REV1p-BenM + 209bp_CYC1p_BenO_T1:GFP, 24 h",3.81
same,"Mean fluorescense intensities of GFP (24 h), CCM (1.4 mM)","strain MeLS0050, REV1p-BenM + 209bp_CYC1p_BenO_T2:GFP",182
same,FC (+/−CCM),"strain MeLS0050, REV1p-BenM + 209bp_CYC1p_BenO_T2:GFP, 24 h",1.166
same,"Mean fluorescense intensities of GFP (24 h), CCM (1.4 mM)","strain MeLS0051, REV1p-BenM + 209bp_CYC1p_BenO_T1/T2:GFP",307
same,FC (+/−CCM),"strain MeLS0051, REV1p-BenM + 209bp_CYC1p_BenO_T1/T2:GFP, 24 h",1.569
same,"Mean fluorescense intensities of GFP (24 h), CCM (1.4 mM)","strain MeLS0070, RNR2p-BenM + 209bp_CYC1p_BenO_T1/T2:GFP",356
same,FC (+/−CCM),"strain MeLS0070, RNR2p-BenM + 209bp_CYC1p_BenO_T1/T2:GFP, 24 h",1.775
same,"Mean fluorescense intensities of GFP (24 h), CCM (1.4 mM)","strain MeLS0079, TEF1p-BenM",185
same,FC (+/−CCM),"strain MeLS0079, TEF1p-BenM, 24 h",1.071
same,"Mean fluorescense intensities of GFP (24 h), CCM (1.4 mM)","strain MeLS0081, REV1p-BenM",175
same,FC (+/−CCM),"strain MeLS0081, REV1p-BenM, 24 h",1.105
same,"Mean fluorescense intensities of GFP (24 h), CCM (1.4 mM)","strain MeLS0139, REV1p-BenM + 491bp_CYC1p:GFP",2231
same,FC (+/−CCM),"strain MeLS0139, REV1p-BenM + 491bp_CYC1p:GFP, 24 h",0.9828
same,"Mean fluorescense intensities of GFP (24 h), CCM (1.4 mM)","strain MeLS0140, REV1p-BenM + 272bp_CYC1p:GFP",183
same,FC (+/−CCM),"strain MeLS0140, REV1p-BenM + 272bp_CYC1p:GFP, 24 h",1.105
same,"Mean fluorescense intensities of GFP (24 h), CCM (1.4 mM)","strain MeLS0141, REV1p-BenM + 249bp_CYC1p:GFP",176
same,FC (+/−CCM),"strain MeLS0141, REV1p-BenM + 249bp_CYC1p:GFP, 24 h",1.056
same,"Mean fluorescense intensities of GFP (24 h), CCM (1.4 mM)","strain MeLS0142, REV1p-BenM + 209bp_CYC1p:GFP",174
same,FC (+/−CCM),"strain MeLS0142, REV1p-BenM + 209bp_CYC1p:GFP, 24 h",1.09
same,"Mean fluorescense intensities of GFP (24 h), CCM (1.4 mM)","strain MeLS0143, REV1p-BenM + 491bp_CYC1p_BenO_T1:GFP",5789
same,FC (+/−CCM),"strain MeLS0143, REV1p-BenM + 491bp_CYC1p_BenO_T1:GFP, 24 h",1.088
same,"Mean fluorescense intensities of GFP (24 h), CCM (1.4 mM)","strain MeLS0144, REV1p-BenM + 272bp_CYC1p_BenO_T1:GFP",804
same,FC (+/−CCM),"strain MeLS0144, REV1p-BenM + 272bp_CYC1p_BenO_T1:GFP, 24 h",2.381
same,"Mean fluorescense intensities of GFP (24 h), CCM (1.4 mM)","strain MeLS0145, REV1p-BenM + 249bp_CYC1p_BenO_T1:GFP",405
same,FC (+/−CCM),"strain MeLS0145, REV1p-BenM + 249bp_CYC1p_BenO_T1:GFP, 24 h",1.953
same,"Mean fluorescense intensities of GFP (24 h), CCM (1.4 mM)","strain MeLS0147, TDH3p-BenM + 272bp_CYC1p_BenO_T1:GFP",4984
same,FC (+/−CCM),"strain MeLS0147, TDH3p-BenM + 272bp_CYC1p_BenO_T1:GFP, 24 h",3.738
same,"Mean fluorescense intensities of GFP (24 h), CCM (1.4 mM)","strain MeLS0148, TEF1p-BenM + 272bp_CYC1p_BenO_T1:GFP",4032
same,FC (+/−CCM),"strain MeLS0148, TEF1p-BenM + 272bp_CYC1p_BenO_T1:GFP, 24 h",3.463
same,"Mean fluorescense intensities of GFP (24 h), CCM (1.4 mM)","strain MeLS0149, RNR2p-BenM + 272bp_CYC1p_BenO_T1:GFP",854
same,FC (+/−CCM),"strain MeLS0149, RNR2p-BenM + 272bp_CYC1p_BenO_T1:GFP, 24 h",2.313
same,"Mean fluorescense intensities of GFP (24 h), CCM (1.4 mM)","strain MeLS0150, TDH3p-BenM + 209bp_CYC1p_BenO_T1:GFP",4868
same,FC (+/−CCM),"strain MeLS0150, TDH3p-BenM + 209bp_CYC1p_BenO_T1:GFP, 24 h",4.082
same,"Mean fluorescense intensities of GFP (24 h), CCM (1.4 mM)","strain MeLS0151, RNR2p-BenM + 209bp_CYC1p_BenO_T1:GFP",859
same,FC (+/−CCM),"strain MeLS0151, RNR2p-BenM + 209bp_CYC1p_BenO_T1:GFP, 24 h",3.735
same,"Mean fluorescense intensities of GFP (24 h), CCM (1.4 mM)","strain MeLS0152, TDH3p-BenM",184
same,FC (+/−CCM),"strain MeLS0152, TDH3p-BenM, 24 h",1.08
same,"Mean fluorescense intensities of GFP (24 h), CCM (1.4 mM)","strain MeLS0153, RNR2p-BenM",174
same,FC (+/−CCM),"strain MeLS0153, RNR2p-BenM, 24 h",1.13
same,"Mean fluorescense intensities of GFP (24 h), CCM (1.4 mM)","strain MeLS0156, TEF1p-BenM + 491bp_CYC1p:GFP",3016
same,FC (+/−CCM),"strain MeLS0156, TEF1p-BenM + 491bp_CYC1p:GFP, 24 h",0.9902
same,"Mean fluorescense intensities of GFP (24 h), CCM (1.4 mM)","strain MeLS0157, TEF1p-BenM + 272bp_CYC1p:GFP",198
same,FC (+/−CCM),"strain MeLS0157, TEF1p-BenM + 272bp_CYC1p:GFP, 24 h",1.13
same,"Mean fluorescense intensities of GFP (24 h), CCM (1.4 mM)","strain MeLS0158, TEF1p-BenM + 249bp_CYC1p:GFP",175
same,FC (+/−CCM),"strain MeLS0158, TEF1p-BenM + 249bp_CYC1p:GFP, 24 h",1.117
same,"Mean fluorescense intensities of GFP (24 h), CCM (1.4 mM)","strain MeLS0159, TEF1p-BenM + 209bp_CYC1p:GFP",177
same,FC (+/−CCM),"strain MeLS0159, TEF1p-BenM + 209bp_CYC1p:GFP, 24 h",1.132
same,"Mean fluorescense intensities of GFP (24 h), CCM (1.4 mM)","strain MeLS0160, RNR2p-BenM + 491bp_2YC1p:GFP",2811
same,FC (+/−CCM),"strain MeLS0160, RNR2p-BenM + 491bp_2YC1p:GFP, 24 h",1.071
same,"Mean fluorescense intensities of GFP (24 h), CCM (1.4 mM)","strain MeLS0161, RNR2p-BenM + 272bp_CYC1p:GFP",180
same,FC (+/−CCM),"strain MeLS0161, RNR2p-BenM + 272bp_CYC1p:GFP, 24 h",1.049
